# Experimental data taken from PubChem BioAssay AID1996.
# Details: buffer; pH 7.4; 200.0 µM
row,Compound,solubility kinetic [µg/mL]
1,CCN(CC)C(=O)CSc1ncnc2sc(C)c(C)c12,43.4
2,COc1ccc(-c2csc(-c3[nH]cnc3N)n2)cc1,18.1
3,CCCC(=O)OCC[N+](C)(C)C.[Cl-],> 31.5
4,Cc1cnc(C(=O)OCC(=O)c2ccc(F)c(F)c2)cn1,> 43.8
5,Cc1ccc(C)c(NC(=O)C2C3C=CC(O3)C2C(=O)O)c1 (centres undefined),> 43.1
6,N#CCN1C(=O)C(=O)N(Cc2cccc(C(F)(F)F)c2)C1=O,42.6
7,C/C(N)=C(/C#N)C(=O)COC(=O)c1cc2c(s1)CCC(C)C2 (centres undefined),4.7
8,Cc1ccc2nc(COC(=O)c3ccc(Cl)nc3)cc(=O)n2c1,7.3
9,CCCC(=O)OCC(=O)Nc1ccc([N+](=O)[O-])cc1C#N,> 43.7
10,COc1ccc(C(=O)OC2CC3CCC(C2)[N+]3(C)[O-])cc1OC (centres undefined),47.8
11,COc1cccc(CN2C(=O)NC3(CCCCCC3)C2=O)c1,> 45.4
12,CC[C@H](C)[C@H](NC(N)=O)C(=O)NCCc1ccc(OC)c(OC)c1,> 50.6
13,Cc1cc(OC(=O)N(C)C)nc(-c2ccc(C)c(Cl)c2)n1,22.5
14,Cc1sc2nc[nH]c(=O)c2c1-c1ccc(F)cc1,4.8
15,Cc1c(Cl)cnc(NC(=O)COC(=O)[C@@H](NC(=O)c2ccco2)C(C)C)c1Cl,> 64.2
16,CCOC(=O)C1CCN(C(=O)CSc2nc(N)cc(=O)[nH]2)CC1,> 51.1
17,COc1ccc(-c2cc(C(=O)Nc3cc(C)on3)no2)cc1,< 0.2
18,CCCC/C(O)=C1\C(=O)CC(C)(C)CC1=NCCCCCC(=O)O,> 50.6
19,COc1ccc(CCNc2nc(C)cc(C)n2)cc1OC.Cl,> 48.6
20,Cc1cc(Cl)ccc1Oc1ncnc2onc(C)c12,1.9
21,Cc1cc(C)c(NC(=O)COC(=O)C2CCC(=O)N2)c(C)c1 (centres undefined),> 45.7
22,CCC(=O)Nc1ccc2c(c1)ncn2C,> 30.5
23,Cc1ccccc1N=C1NC(=O)C(CO)(CO)S1,> 39.9
24,O=C1CCCCC1Sc1ccc(Cl)cc1[N+](=O)[O-] (centres undefined),40.6
25,Nc1cc(OCC(F)(F)F)cc(OCC(F)(F)F)c1,> 43.4
26,CC(NC(=O)c1ccco1)C12CC3CC(CC(C3)C1)C2 (centres undefined),> 41

# The remaining lines, values ahead:
row,solubility kinetic [µg/mL],Compound
1,44.3,COc1cc2c(cc1OC)CN(CC(O)c1ccccc1)CC2 (centres undefined)
2,> 44.9,CS(=O)(=O)N1CCN(Cc2ccc([N+](=O)[O-])cc2)CC1
3,5.4,Cc1cccc(C(=O)Nc2ccnc(-c3cccnc3)n2)c1
4,< 0.7,O=C(CCCc1ccccc1)Nc1ccc(Br)cc1F
5,2.1,COc1ccc(NC(=O)NCCCCc2ccccc2)cc1
6,1.3,CC(C)(C)NC(=O)C(OC(=O)c1cccs1)c1ccc(F)cc1 (centres undefined)
7,43.9,[Br-].c1ccc(C[n+]2ccc3ccccc3c2)cc1
8,4.7,Cc1ccc(-c2cc(C(=O)NCC3CCCO3)c3ccccc3n2)cc1C (centres undefined)
9,< 0.4,COc1ccc(C(=O)Nc2ccccc2NC(=O)c2ccc(OC)cc2)cc1
10,3.4,Cc1ccc(C(=O)CCC(=O)Nc2ccc(C)cn2)cc1
11,> 73.4,O=C(OCCN1C(=O)c2ccccc2C1=O)[C@@H]1CC(O)CN1S(=O)(=O)c1ccccc1[N+](=O)[O-] (some centres undefined)
12,< 0.3,CCOc1ccccc1C(=O)Nc1ccc2c(c1)C(=O)NC2=O
13,< 0.2,CCn1cc(C(=O)Nc2cccc(C)c2)c(=O)c2ccc(C)nc21
14,17.4,CC(=O)N(CCc1ccccc1)Cc1cc2ccc(C)c(C)c2[nH]c1=O
15,12,NC(=O)c1ccsc1NC(=O)Cc1ccc([N+](=O)[O-])cc1
16,7.8,O=C(CNC(=O)c1ccc2ccccc2c1)NCc1ccccc1F
17,> 45.5,O=C(O)c1ccn(CSc2cc(Cl)ccc2Cl)n1

row,solubility kinetic [µg/mL],Compound
1,39.8,COc1ccc(CCNC(=O)Nc2cccc([N+](=O)[O-])c2)cc1OC
2,39.1,O=C(CN1CCOCC1)Nc1ccccc1C(=O)Nc1ccccc1
3,48,CC(C)N1C(=O)c2ccccc2C1C(=O)NCCc1ccccc1 (centres undefined)
4,2.7,Cc1ccc2cc(COC(=O)c3cccc([N+](=O)[O-])c3)c(=O)[nH]c2c1
5,> 41.7,COc1ccc(NC(=O)CSc2nncn2C)cc1
6,14.8,CNC(=O)c1cnc(-c2ccccc2)nc1-c1ccccc1
7,> 59.9,CCN(C(=O)CN1CCCC(C)C1)c1c(N)n(Cc2ccccc2)c(=O)[nH]c1=O (centres undefined)
8,0.9,CC(=O)c1ccccc1NS(=O)(=O)c1cccc2nonc12
9,> 48.8,CN(CCc1ccccc1)C1CCCN(S(=O)(=O)N(C)C)C1 (centres undefined)
10,21.4,Nc1cc(Cl)ccc1C(=O)OCC(=O)N1CCCC1
11,> 51.6,O=C(CCl)Nc1ccc(S(=O)(=O)NC2=NCCCCC2)cc1
12,5.4,CCN(CC)c1ccc(NC(=O)c2ccc3c(c2)OCO3)c(C)c1
13,> 46.3,CN1CCN(C(=S)NC(=O)c2cccc([N+](=O)[O-])c2)CC1
14,1.3,Cc1ccc(S(=O)(=O)CC(=O)Nc2nc3ccccc3s2)cc1
15,> 40.8,O=C(O)c1cc(-n2cccc2)ccc1N1CCOCC1
16,> 47.7,O=C(O)CCCCCNC(=O)C(=O)C1C(=O)Nc2ccccc21 (centres undefined)
